One test has as its system mice. Kind of test: Anti-delayed type allergy reaction, oxazolone ear inflammation. Type of test: in vivo, mouse. As to conditions: drug 2.0 w/v % in oxazolone acetone solution, 10 μl on right ear, 24 hr; for Inhibiting rate (%) (adding 0.1 w/v % of drug): with 0.1 w/v % of caffeine; for Inhibiting rate (%) (non-caffeine added): without caffeine. On the procedure: The weights of testing mice are ranging from 20 g to 30 g. They are coated with 0.1 ml of oxazolone alcohol solution (0.5 w/v %) on the hair cleaned part of abdomen. […] After 24 hr, the mouse is killed by ether and punched a circle area of a diameter of 5.5 mm on both right and left ears in corresponding part by a puncher machine (portions of drug coated and the blank). The punched portions are weighed and the inflammation rates calculated. The control group are coated only with the oxazolone acetone solution (0.5 w/v %). The inflammation inhibiting rates of each drug are calculated by following equation: Inflammation inhibiting rate (%)=[(weight of drug-coated right ear)−(weight of non-drug-coated left ear)]×100%/(weight of non-drug-coated left ear)

In a further test the test system is person. Kind of test: Tests for increase the ability of learning and memory. In kind it is in vivo, human. As to conditions: three pieces of 600 mg, average of four tests before and after ingesting; for change in vivo at 1800 mg: Homo sapiens, po, read-out: Increase rate (%) of memory ability. On the procedure:
A person administrates see a random series of 100 numbers, typed by PC, for 10 minutes and memory it. Then recite and write down the memorized number series. To check the recited series with the original one to see how many numbers are correct. In each testing at least has 10 minutes interval, and repeat four times. […] Each kind of drugs testing is done in half day, morning or afternoon only. The testing results were counted by one correct number for one point. Make the average value of four times testing of before and after drug ingesting, respectively. The increase of learning or memory ability is calculated by following equation and listed in Table 14: Rate of increase of memory ability=[(average value of four time testing before ingesting drug)−(average value of four times testing after ingesting drug)]×100%/(average value of four time testing before ingesting drug)

The test system of test [1] is mouse's leaching cell solution (abdominal cavity cells), histamine release by 48/80 compound. Kind of test: Drug inhibiting effect on histamine leaching from mouse abdominal cavity cells treated with 48/80 compound. Type of test: cell-based. As to conditions: for inhibition at 100 µg/mL / IC50 / inhibition at 2 µg/mL / inhibition at 5 µg/mL / inhibition at 10 µg/mL / inhibition at 50 µg/mL / inhibition at 300 µg/mL / inhibition at 1000 µg/mL: Mus musculus; for IC50: calculated by figure, read-out: IC50 value (concentration for inhibiting rate of 50%). On the procedure:
This is a comparative testing for drug depressing effect on the amount of leaching histamines when is treated with 48/80 (Sigma, St. MO, USA) compound.
(1). Preparation of Leaching Cell Solution from Mouse Body.
A mouse is killed and bloodletting. Then 10 ml of Locke's solution containing 0.1% bovine serum protein is injected into its abdominal cavity. After abdominal cavity being light massaged, the cavity is cut and the Locke's solution is removed. Cavity is washed with another 5 ml of Locke's solution, and this washed solution is added to the latter one. This combined solution is centrifuged at 600 rpm for 5 minutes. The sediments are washed with 5 ml of cool Locke's solution. Adding 3 ml of cold Locke's solution to the washed sediments, then a leached cell solution of abdominal cavity is obtained. (The composition of Locke's solution is: NaCL […], KCL 0.2%, CaCL2 0.15%, glucose 1.0%, in w/v, and the rest distillated water.)
(2). Drug Inhibiting Effect on the Amount of Leaching Histamines when Treated with 48/80 Compound.
1.0 ml of each of those solutions in last term is mixed with 0.3 ml of mouse's leaching cell solution and 0.5 ml of Locke's solution. This mixture is cultivated at 37° C. for 5 minutes. Then adding 0.2 ml of Locke's solution of 48/80 compound (1 mg/100 ml) and cultivated at 37° C. for 10 minutes. Then the reaction is stopped by cooling, and centrifuged at 2,500 rpm for 10 minutes. 1.7 ml of decanted solution and 0.3 ml of sediments are obtained.
0.1 ml of water and 0.2 ml of 100% trichloroacetic acid are added to the decanted solution. 1.5 ml of Locke's solution and 0.2 ml of 100% trichloroacetic acid are added to the sediments washed solution. They are cultivated at room temperature for 30 minutes. After cultivation, the mixtures are centrifuged at 3,000 rpm for 15 minutes, respectively. 0.35 ml of each of the former two solutions is sampled. In each sample, 1.65 ml of water, 0.4 ml of 1N NaOH and 0.1 ml of 0.5% OPT (o-phthalic aldehyde) in methanol are added and cultivated at room temperature for 4 minutes. The reaction is stopped by adding 0.2 ml of 2M citric acid. And finally, determine the amount of released histamines in the tested solution by fluorescence method. By the analysis, results of the inhibiting rate of histamines could be calculated.
Locke's solution is instead of each drug in control group, and instead of both drug and 48/80 compound solution in blank group.
The histamine releasing rate (A) can be calculated by following equation. […] Where (Hs) is the total amount of histamine in the decanted solution, and (Hr) is the total amount of histamine in the sediment. (A)=[(Hs)/{(Hs)+(Hr)}]×100%. Then the inhibiting rate is:
=100−[(A−A in blank group)/(A−A in control group)]×100%.

[2] abbreviates: testing drug 100 μg/ml, adding 5% of coffee extract, read-out: inhibiting rate (%) (adding 5% of coffee extract).
[3] abbreviates: testing drug 100 μg/ml, non adding coffee extract, read-out: Inhibiting rate (%) (non adding coffee extract).
Setting [4] is: testing drug 100 μg/ml, adding 5% of coffee extract.
[5] abbreviates: testing drug 100 μg/ml, non adding coffee extract.

Each structure is given as a SMILES string. In brackets after ≈: the same amount, converted by molar mass. Where a name gives a salt, the structure may show the parent alone. Read-outs that look alike come from different tables or passages of the source.

We go through 14 compounds from patent US20080286388A1, “Pharmaceutical Composition and Non Dependence Coffee Comprising Edible Carboxylic Acid and/or Its Acid Salts and Coffeine” (priority 2004, published 2008).

In the case of `O=C(O)CC(O)(CC(=O)O)C(=O)O` [Citric acid], the “Inhibiting rate (%) (adding 0.1 w/v % of drug)” value with mice is listed as 100%. In addition, the “Inhibiting rate (%) (non-caffeine added)” value in the test on mice came out at 100%. The change in vivo at 1800 mg in the test with person turned out to be 360%. Besides, the inhibition at 100 µg/mL in test [1] (setting [2]) and in test [1] (setting [3]) was 100% in each case.

For the compound `CN(C)CCOC(c1ccccc1)c1ccccc1` [Diphenhydramine hydrochloride, reference compound], in the test on mice, the “Inhibiting rate (%) (adding 0.1 w/v % of drug)” value amounted to 20% and the “Inhibiting rate (%) (non-caffeine added)” value is given as 20%. Further, the inhibition at 100 µg/mL in test [1] (setting [2]) turned out to be 50.4%. The inhibition at 100 µg/mL in test [1] (setting [3]) amounted to 32.1%.

As to `O=C(O)/C=C/C(=O)O` [Fumaric acid], in the test with mice, the “Inhibiting rate (%) (adding 0.1 w/v % of drug)” value turned out to be 100%. In addition, in the test on mice, the “Inhibiting rate (%) (non-caffeine added)” value is 98%. Besides, the change in vivo at 1800 mg with person turned out to be 300%. Also, the inhibition at 100 µg/mL in test [1] (setting [2]) and in test [1] (setting [3]) was 100% throughout.

Turning to `CC(O)C(=O)O` (stereo not drawn) [Lactic acid], in the test with mice, the “Inhibiting rate (%) (adding 0.1 w/v % of drug)” value is given as 98% and the “Inhibiting rate (%) (non-caffeine added)” value was 97%. Further, in the test on person, the change in vivo at 1800 mg came out at 280%. The inhibition at 100 µg/mL in test [1] (setting [2]) came out at 100%. Besides, in test [1] (setting [3]), the inhibition at 100 µg/mL is 100%.

On to `O=C(O)CCC(=O)O` [Succinic acid], for which the change in vivo at 1800 mg with person turned out to be 330%. Further, the IC50 in test [1] (adding 5% of coffee extract) is 5.8 µg/mL (≈ 49.1 µM); in test [1] (non-adding coffee extract), 7 µg/mL (≈ 59.3 µM). For the same compound, the inhibition at 2 µg/mL in test [1] (dose 2 μg/ml, adding 5% of coffee extract, read-out: Inhibiting rate (%)) amounted to 24.9%; in test [1] (dose 2 μg/ml, non-adding coffee extract, read-out: Inhibiting rate (%)), 17.9%. The inhibition at 5 µg/mL in test [1] (dose 5 μg/ml, adding 5% of coffee extract, read-out: Inhibiting rate (%)) is 43.6%; in test [1] (dose 5 μg/ml, non-adding coffee extract, read-out: Inhibiting rate (%)), 37.7%. In addition, the inhibition at 10 µg/mL in test [1] (dose 10 μg/ml, adding 5% of coffee extract, read-out: Inhibiting rate (%)) amounted to 87.9%; in test [1] (dose 10 μg/ml, non-adding coffee extract, read-out: Inhibiting rate (%)), 84%. Further, the inhibition at 50 µg/mL came out at 100% in test [1] (dose 50 μg/ml, adding 5% of coffee extract, read-out: Inhibiting rate (%)) and 100% in test [1] (dose 50 μg/ml, non-adding coffee extract, read-out: Inhibiting rate (%)). The inhibition at 100 µg/mL in test [1] (dose 100 μg/ml, adding 5% of coffee extract, read-out: Inhibiting rate (%)) amounted to 100%; in test [1] (dose 100 μg/ml, non-adding coffee extract, read-out: Inhibiting rate (%)) it was 100%; in test [1] (setting [2]), 100%; in test [1] (setting [3]), 100%. Further, the inhibition at 300 µg/mL in test [1] (dose 300 μg/ml, adding 5% of coffee extract, read-out: Inhibiting rate (%)) came to 100%; in test [1] (dose 300 μg/ml, non-adding coffee extract, read-out: Inhibiting rate (%)), 100%. Also, the inhibition at 1000 µg/mL in test [1] (dose 1000 μg/ml, adding 5% of coffee extract, read-out: Inhibiting rate (%)) was determined as 100%; in test [1] (dose 1000 μg/ml, non-adding coffee extract, read-out: Inhibiting rate (%)), 100%. Moreover, the “Histamine releasing rate (%)” value in test [1] (dose 2 μg/ml, adding 5% of coffee extract) was found to be 70.5%; in test [1] (dose 2 μg/ml, non-adding coffee extract) it was 76.2%; in test [1] (dose 5 μg/ml, adding 5% of coffee extract), 55.3%; in test [1] (dose 5 μg/ml, non-adding coffee extract), 60.1%; in test [1] (dose 10 μg/ml, adding 5% of coffee extract), 19.3%; in test [1] (dose 10 μg/ml, non-adding coffee extract), 22.5%. The “Histamine releasing rate (%)” value in test [1] (dose 50 μg/ml, adding 5% of coffee extract) amounted to 9.1%; in test [1] (dose 50 μg/ml, non-adding coffee extract), 9.1%; in test [1] (dose 100 μg/ml, adding 5% of coffee extract), 9.3%; in test [1] (dose 100 μg/ml, non-adding coffee extract), 9.3%; in test [1] (dose 300 μg/ml, adding 5% of coffee extract), 9.4%; in test [1] (dose 300 μg/ml, non-adding coffee extract), 9.4%. Moreover, the “Histamine releasing rate (%)” value is recorded as 9.4% in test [1] (dose 1000 μg/ml, adding 5% of coffee extract) and 9.4% in test [1] (dose 1000 μg/ml, non-adding coffee extract).

As for `O=C(O)C(O)C(O)C(=O)O` (stereo not drawn) [Tartaric acid], in the test on mice, the “Inhibiting rate (%) (adding 0.1 w/v % of drug)” value was determined as 99% and the “Inhibiting rate (%) (non-caffeine added)” value worked out at 97%. Moreover, the change in vivo at 1800 mg with person amounted to 305%. Further, the inhibition at 100 µg/mL in test [1] (setting [2]) was found to be 100%. Moreover, the inhibition at 100 µg/mL in test [1] (setting [3]) was determined as 100%.

With `CC(=O)O` [acetic acid], in the test on person, the change in vivo at 1800 mg was found to be 307%. Further, the inhibition at 100 µg/mL in test [1] (setting [2]) and in test [1] (setting [3]) was 100% in each case.

On to `O=C(O)C=C(CC(=O)O)C(=O)O` [aconitic acid], for which, in the test with person, the change in vivo at 1800 mg came to 315%. The values for the inhibition at 100 µg/mL in test [1] (setting [2]) and in test [1] (setting [3]) were 40% and 100%, respectively.

With `O=C1O[C@H](CO)[C@@H](O)[C@H](O)[C@H]1O` [gluconolactone], the change in vivo at 1800 mg in the test on person turned out to be 290%. Further, the inhibition at 100 µg/mL in test [1] (setting [2]) and in test [1] (setting [3]) was 100% throughout.

Consider `O=C(O)CCC(=O)C(=O)O` [keto-glutaric acid], for which the “Increase rate (%) of memory ability” value in the test on person came to 321%. Moreover, the “inhibiting rate (%) (adding 5% of coffee extract)” value in test [1] (setting [4]) is reported as 100%. Also, the “Inhibiting rate (%) (non adding coffee extract)” value in test [1] (setting [5]) is given as 100%.

With `O=C(O)CC(=O)C(=O)O` [oxalacetic acid], the change in vivo at 1800 mg in the test on person turned out to be 310%. In addition, the inhibition at 100 µg/mL in test [1] (setting [2]) and in test [1] (setting [3]) was 100% each time.

With `CCC(=O)O` [propionic acid], in the test on person, the change in vivo at 1800 mg stood at 296%. Further, the inhibition at 100 µg/mL in test [1] (setting [2]) and in test [1] (setting [3]) was 100% in each case.

In the case of `O=C(O)CO` [α-hydroxy ethanoic acid], the “Increase rate (%) of memory ability” value with person is 300%. The “inhibiting rate (%) (adding 5% of coffee extract)” value in test [1] (setting [4]) is reported as 100%. In test [1] (setting [5]), the “Inhibiting rate (%) (non adding coffee extract)” value worked out at 100%.

On to `CCCCCCC(O)C(=O)O` (stereo not drawn) [α-hydroxy octanoic acid], for which the change in vivo at 1800 mg with person was 300%. Besides, the inhibition at 100 µg/mL in test [1] (setting [2]) and in test [1] (setting [3]) was 100% throughout.
